Data published in patent publication US9085555B2, “Complement pathway modulators and uses thereof” (priority 2011, dated 2015).
Where two headings read alike, the source gives them in different places.

Target: Factor D (Homo sapiens (Human), UniProt P00746)
Assay: biochemical
Type: biochemical

Chain of Factor D (P00746 26-253): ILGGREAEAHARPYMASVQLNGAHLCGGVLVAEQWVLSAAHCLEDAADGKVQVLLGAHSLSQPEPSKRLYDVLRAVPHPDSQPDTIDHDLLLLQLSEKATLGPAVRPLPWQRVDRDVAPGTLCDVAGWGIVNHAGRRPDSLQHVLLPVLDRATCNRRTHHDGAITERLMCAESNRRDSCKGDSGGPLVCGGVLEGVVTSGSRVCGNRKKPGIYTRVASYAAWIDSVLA

SMILES	IC50 (read-out: IC50) [nM]	IC50 [nM]
COC[C@@]12C[C@@H](C(=O)NCc3cccc(Cl)c3F)N(C(=O)Cc3cn(C(N)=O)c4ccccc34)[C@@H]1C2 [Example 454, 3-{2-[(1R,3S,5S)-3-(3-Chloro-2-fluoro-benzylcarbamoyl)-5-methoxymethyl-2-aza-bicyclo[3.1.0]hex-2-yl]-2-oxo-ethyl}-indole-1-carboxylic acid amide]	103	–
NC(=O)n1cc(CC(=O)N2[C@@H]3C[C@@H]3C[C@H]2C(=O)Nc2cccc(OC(F)(F)F)c2)c2cc(OCCO)ccc21 [Example 455, 5-(2-Hydroxy-ethoxy)-3-{2-oxo-2-[(1R,3S,5R)-3-(3-trifluoromethoxy-phenylcarbamoyl)-2-aza-bicyclo[3.1.0]hex-2-yl]-ethyl}-indole-1-carboxylic acid amide]	767	–
NC(=O)n1cc(CC(=O)N2[C@@H]3C[C@@H]3C[C@H]2C(=O)NCc2ccc(Cl)s2)c2ccccc21 [Example 456, 3-(2-{(1R,3S,5R)-3-[(5-Chloro-thiophen-2-ylmethyl)-carbamoyl]-2-aza-bicyclo[3.1.0]hex-2-yl}-2-oxo-ethyl)-indole-1-carboxylic acid amide]	85	–
NC(=O)n1cc(CC(=O)N2[C@@H]3C[C@@H]3C[C@H]2C(=O)N[C@H](CCO)c2cccc(Cl)c2F)c2ccccc21 [Example 457, 3-(2-{(1R,3S,5R)-3-[(R)-1-(3-Chloro-2-fluoro-phenyl)-3-hydroxy-propylcarbamoyl]-2-azabicyclo[3.1.0]hex-2-yl}-2-oxo-ethyl)-indole-1-carboxylic acid amide]	107	–
CN(C)C[C@@H](NC(=O)[C@@H]1C[C@H]2C[C@H]2N1C(=O)Cc1cn(C(N)=O)c2ccccc12)c1cccc(Cl)c1F [Example 458, 3-(2-{(1R,3S,5R)-3-[(S)-1-(3-Chloro-2-fluoro-phenyl)-2-dimethylamino-ethylcarbamoyl]-2-aza-bicyclo[3.1.0]hex-2-yl}-2-oxo-ethyl)-indole-1-carboxylic acid amide]	169	–
C[C@@]1(F)C[C@@H](C(=O)NCc2cccc(Cl)c2F)N(C(=O)Cc2cn(C(N)=O)c3ccc(OCCO)cc23)C1 [Example 459, 3-{2-[(2S,4R)-2-(3-Chloro-2-fluoro-benzylcarbamoyl)-4-fluoro-4-methyl-pyrrolidin-1-yl]-2-oxo-ethyl)-5-(2-hydroxy-ethoxy)-indole-1-carboxylic acid amide]	211	–
NC(=O)n1cc(CC(=O)N2C[C@H](F)C[C@H]2C(=O)NCc2cccc(Cl)c2F)c2cc(F)ccc21 [Example 460, 3-{2-[(2S,4R)-2-(3-Chloro-2-fluoro-benzylcarbamoyl)-4-fluoro-pyrrolidin-1-yl]-2-oxo-ethyl}-5-fluoro-indole-1-carboxylic acid amide]	20	–
NC(=O)n1cc(CC(=O)N2CCS[C@H]2C(=O)NCc2cccc(Cl)c2F)c2cc(OCCO)ccc21 [Example 462, 3-{2-[(S)-2-(3-Chloro-2-fluoro-benzylcarbamoyl)-thiazolidin-3-yl]-2-oxo-ethyl}-5-(2-hydroxy-ethoxy)-indole-1-carboxylic acid amide]	75	–
NC(=O)n1cc(CC(=O)N2C[C@H]3C[C@H]3[C@H]2C(=O)N[C@H](CO)c2cccc(Cl)c2F)c2ccccc21 [Example 463, 3-(2-{(1R,2S,5S)-2-[(S)-1-(3-Chloro-2-fluoro-phenyl)-2-hydroxy-ethylcarbamoyl]-3-azabicyclo[3.1.0]hex-3-yl}-2-oxo-ethyl)-indole-1-carboxylic acid amide]	3110	–
COC[C@@H](NC(=O)[C@@H]1C[C@H]2C[C@H]2N1C(=O)Cc1cn(C(N)=O)c2ccccc12)c1cccc(Cl)c1F [Example 464, 3-(2-{(1R,3S,5R)-3-[(S)-1-(3-Chloro-2-fluoro-phenyl)-2-methoxy-ethylcarbamoyl]-2-aza-bicyclo[3.1.0]hex-2-yl}-2-oxo-ethyl)-indole-1-carboxylic acid amide]	254	–
NC(=O)n1cc(CC(=O)N2C[C@H](F)[C@@H](N)[C@H]2C(=O)NCc2cccc(Cl)c2F)c2ccccc21 [Example 466, 3-{2-[(2S,3S,4S)-3-Amino-2-(3-chloro-2-fluoro-benzylcarbamoyl)-4-fluoro-pyrrolidin-1-yl]-2-oxo-ethyl}-indole-1-carboxylic acid amide]	43	–
NC(=O)n1cc(CC(=O)N2[C@H](C(=O)NCc3cccc(Cl)c3F)C[C@@]3(CO)C[C@@H]23)c2ccccc21 [Example 467, 3-{2-[(1R,3S,5S)-3-(3-Chloro-2-fluoro-benzylcarbamoyl)-5-hydroxymethyl-2-aza-bicyclo[3.1.0]hex-2-yl]-2-oxo-ethyl}-indole-1-carboxylic acid amide]	47	–
NC(=O)n1cc(CC(=O)N2C[C@@H](N)C[C@H]2C(=O)NCc2cccc(Cl)c2F)c2ccccc21 [Example 468, 3-{2-[(2S,4S)-4-Amino-2-(3-chloro-2-fluoro-benzylcarbamoyl)-pyrrolidin-1-yl]-2-oxo-ethyl}-indole-1-carboxylic acid amide]	–	350
NC(=O)n1cc(CC(=O)N2NCCC2C(=O)NCc2cccc(Cl)c2)c2ccccc21 (stereo not shown) [Example 469, 3-{2-[5-(3-Chloro-benzylcarbamoyl)-pyrazolidin-1-yl]-2-oxo-ethyl}-indole-1-carboxylic acid amide]	3350	–
NC[C@@]1(F)C[C@@H](C(=O)NCc2cccc(Cl)c2F)N(C(=O)Cc2cn(C(N)=O)c3ccccc23)C1 [Example 470, 3-{2-[(2S,4S)-4-Aminomethyl-2-(3-chloro-2-fluoro-benzylcarbamoyl)-4-fluoro-pyrrolidin-1-yl]-2-oxo-ethyl}-indole-1-carboxylic acid amide]	250	–
NC[C@@]1(F)C[C@@H](C(=O)NCc2c(F)ccc(Cl)c2F)N(C(=O)Cc2cn(C(N)=O)c3ccccc23)C1 [Example 471, 3-{2-[(2S,4S)-4-Aminomethyl-2-(3-chloro-2,6-difluoro-benzylcarbamoyl)-4-fluoro-pyrrolidin-1-yl]-2-oxo-ethyl}-indole-1-carboxylic acid amide]	89	–
CN(C)CCOc1ccc2c(c1)c(CC(=O)N1[C@@H]3C[C@@H]3C[C@H]1C(=O)NCc1cccc(Cl)c1F)cn2C(N)=O [Example 472, 3-{2-[(1R,3S,5R)-3-(3-Chloro-2-fluoro-benzylcarbamoyl)-2-aza-bicyclo[3.1.0]hex-2-yl]-2-oxo-ethyl}-5-(2-dimethylamino-ethoxy)-indole-1-carboxylic acid amide]	255	–
NC(=O)n1cc(CC(=O)N2[C@@H]3C[C@@H]3C[C@H]2C(=O)NCc2cccc(Cl)c2F)c2ccc(CC(=O)O)cc21 [Example 473, (1-Carbamoyl-3-{2-[(1R,3S,5R)-3-(3-chloro-2-fluoro-benzylcarbamoyl)-2-aza-bicyclo[3.1.0]hex-2-yl]-2-oxo-ethyl}-1H-indol-6-yl)-acetic acid]	463	–
NC(=O)n1cc(CC(=O)N2[C@@H]3C[C@@H]3C[C@H]2C(=O)NCc2cccc(Cl)c2F)c2ccc(CCO)cc21 [Example 474, 3-{2-[(1R,3S,5R)-3-(3-Chloro-2-fluoro-benzylcarbamoyl)-2-aza-bicyclo[3.1.0]hex-2-yl]-2-oxo-ethyl}-6-(2-hydroxy-ethyl)-indole-1-carboxylic acid amide]	95	–
NC(=O)c1cn(CC(=O)N2[C@@H]3C[C@@H]3C[C@H]2C(=O)NCc2cccc(Cl)c2F)c2ccccc12 [Example 475, 1-{2-[(1R,3S,5R)-3-(3-Chloro-2-fluoro-benzylcarbamoyl)-2-aza-bicyclo[3.1.0]hex-2-yl]-2-oxo-ethyl}-1H-indole-3-carboxylic acid amide]	350	–
NC(=O)c1cn(CC(=O)N2C[C@H](F)C[C@H]2C(=O)NCc2cccc(Cl)c2F)c2ccccc12 [Example 476, 1-{2-[(2S,4R)-2-(3-Chloro-2-fluoro-benzylcarbamoyl)-4-fluoro-pyrrolidin-1-yl]-2-oxo-ethyl}-1H-indole-3-carboxylic acid amide]	33	–
COc1cccc2c(C(N)=O)cn(CC(=O)N3C[C@H](F)C[C@H]3C(=O)NCc3cccc(Cl)c3F)c12 [Example 477, 1-{2-[(2S,4R)-2-(3-Chloro-2-fluoro-benzylcarbamoyl)-4-fluoro-pyrrolidin-1-yl]-2-oxo-ethyl}-7-methoxy-1H-indole-3-carboxylic acid amide]	628	–
CC(=O)c1cn(CC(=O)N2CCCC[C@H]2C(=O)NCc2cccc(Cl)c2F)c2ccccc12 [Example 478, (S)-1-[2-(3-Acetyl-indol-1-yl)-acetyl]-piperidine-2-carboxylic acid 3-chloro-2-fluoro-benzylamide]	258	–
NC(=O)c1cn(CC(=O)N2C[C@H](F)C[C@H]2C(=O)NCc2cccc(Cl)c2F)c2cc(Br)c(F)cc12 [Example 479, 6-Bromo-1-{2-[(2S,4R)-2-(3-chloro-2-fluoro-benzylcarbamoyl)-4-fluoro-pyrrolidin-1-yl]-2-oxo-ethyl}-5-fluoro-1H-indole-3-carboxylic acid amide]	89	–
NC(=O)c1cn(CC(=O)N2C[C@H](F)C[C@H]2C(=O)NCc2cccc(Br)c2F)c2ccccc12 [Example 481, 1-{2-[(2S,4R)-2-(3-Bromo-2-fluoro-benzylcarbamoyl)-4-fluoro-pyrrolidin-1-yl]-2-oxo-ethyl}-1H-indole-3-carboxylic acid amide]	22	–
CC(=O)c1cn(CC(=O)N2C[C@](C)(F)C[C@H]2C(=O)NCc2cccc(Cl)c2F)c2cnccc12 [Example 482, (2S,4R)-1-[2-(3-Acetyl-pyrrolo[2,3-c]pyridin-1-yl)-acetyl]-4-fluoro-4-methyl-pyrrolidine-2-carboxylic acid 3-chloro-2-fluoro-benzylamide]	188	–
CC(=O)c1cn(CC(=O)N2[C@@H]3C[C@@H]3C[C@H]2C(=O)NCc2cccc(Cl)c2F)c2ncccc12 [Example 483, (1R,3S,5R)-2-[2-(3-Acetyl-pyrrolo[2,3-b]pyridin-1-yl)-acetyl]-2-aza-bicyclo[3.1.0]hexane-3-carboxylic acid 3-chloro-2-fluoro-benzylamide]	60	–
CC(=O)c1cn(CC(=O)N2[C@@H]3C[C@@H]3C[C@H]2C(=O)NCc2ccc(Cl)s2)c2ncccc12 [Example 484, (1R,3S,5R)-2-[2-(3-Acetyl-pyrrolo[2,3-b]pyridin-1-yl)-acetyl]-2-aza-bicyclo[3.1.0]hexane-3-carboxylic acid (5-chloro-thiophen-2-ylmethyl)-amide]	358	–
